Measured values as given in the supplement of paper PMC10307832.

Columns and labels:
Experiment in all cases: relative viability (nuclei count vs DMSO), 5 days (fraction); higher = more cells survive
[1] = compound: CC(C)C[C@@H](C(=O)N[C@H](C(=O)OC1CCCC1)c1ccccc1)[C@H](O)C(=O)NO [Tosedostat] + CC(=O)c1c(C)c2cnc(Nc3ccc(N4CCNCC4)cn3)nc2n(C2CCCC2)c1=O [Palbociclib] (partner 0.5 µM)
Outline: (§1)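 Nuclei were stained with Hoechst during a one-step fixation (final 0.05% Triton X-100, 1% formaldehyde, 1 ug/ml Hoechst) carried out 5 days after dosing, then counted on 4× images. The cells, lung cancer lines in 1536-well plates, had been dosed by pin tool the day after seeding with one drug alone or a fixed anchor-drug dose plus five library-drug doses (not always all listed) in √10 steps. Relative viability is the nuclei count in treated wells divided by that in vehicle wells, and each value is the median of duplicate plates.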

[2] = compound: CC1=NN=C(O1)C2=NN=C(C=C2)N3CCC(CC3)OC4=C(C=CC(=C4)F)Cl + Nc1nc2[nH]cc(CCc3ccc(C(=O)N[C@@H](CCC(=O)O)C(=O)O)cc3)c2c(=O)[nH]1 [Pemetrexed] (partner 0.2 µM)
Outline: as §1

[3] = compound: CC1=NN=C(O1)C2=NN=C(C=C2)N3CCC(CC3)OC4=C(C=CC(=C4)F)Cl + CS(=O)(=O)N1CCN(Cc2cc3nc(-c4cccc5[nH]ncc45)nc(N4CCOCC4)c3s2)CC1 [Pictilisib] (partner 1 µM)
Outline: as §1

[4] = compound: CC(C)C[C@@H](C(=O)N[C@H](C(=O)OC1CCCC1)c1ccccc1)[C@H](O)C(=O)NO [Tosedostat] + Cc1nc(NC(=O)N2CCC[C@H]2C(N)=O)sc1-c1ccnc(C(C)(C)C(F)(F)F)c1 [Alpelisib] (partner 2 µM)
Outline: as §1

Cell Line | relative viability ([1]; first compound 0.02 µM) | relative viability ([1]; first compound 0.06325 µM) | relative viability ([1]; first compound 0.2 µM) | relative viability ([1]; first compound 0.6325 µM) | relative viability ([1]; first compound 2 µM) | relative viability ([2]; first compound 0.253 µM) | relative viability ([2]; first compound 0.8 µM) | relative viability ([2]; first compound 2.53 µM) | relative viability ([2]; first compound 8 µM) | relative viability ([3]; first compound 0.253 µM) | relative viability ([3]; first compound 0.8 µM) | relative viability ([3]; first compound 2.53 µM) | relative viability ([3]; first compound 8 µM) | relative viability ([4]; first compound 0.02 µM) | relative viability ([4]; first compound 0.06325 µM) | relative viability ([4]; first compound 0.2 µM) | relative viability ([4]; first compound 0.6325 µM) | relative viability ([4]; first compound 2 µM)
NCI-H2342 | 0.536 | 0.507 | 0.578 | 0.524 | 0.61 | 0.646 | 0.663 | 0.701 | 0.614 |  |  |  |  |  |  |  |  | 
SK-MES-1 | 0.305 | 0.3 | 0.353 | 0.355 | 0.302 | 0.681 | 0.853 | 0.828 | 0.628 | 0.263 | 0.377 | 0.341 | 0.384 | 0.814 | 1 | 0.832 | 0.802 | 0.689
NCI-H1355 | 0.351 | 0.399 | 0.384 | 0.403 | 0.374 | 0.715 | 0.562 | 0.949 | 0.874 |  |  | 0.453 | 0.374 | 0.704 | 0.798 | 0.854 | 0.667 | 0.688
HCC-366 | 0.389 | 0.43 | 0.372 | 0.391 | 0.369 | 0.0851 | 0.121 | 0.174 | 0.15 | 0.12 | 0.197 | 0.15 | 0.142 | 0.331 | 0.357 | 0.376 | 0.382 | 0.342
201T | 0.362 | 0.367 | 0.372 | 0.38 | 0.377 | 0.314 | 0.255 | 0.316 | 0.339 | 0.537 | 0.634 | 0.681 | 0.663 | 0.967 | 1.08 | 1.07 | 1.21 | 1.15
HCC-827 | 0.421 | 0.536 | 0.505 | 0.466 | 0.502 | 0.257 | 0.244 | 0.246 | 0.224 | 0.544 | 0.571 | 0.609 | 0.605 | 0.826 | 0.934 | 1.02 | 0.842 | 0.875
PC-14 | 0.583 | 0.469 | 0.502 | 0.447 | 0.444 | 0.139 | 0.117 | 0.153 | 0.121 | 0.603 | 0.735 | 0.781 | 0.702 | 0.806 | 0.903 | 0.956 | 0.899 | 0.786
NCI-H2228 | 1 | 0.865 | 0.821 | 0.473 | 0.426 | 0.28 | 0.333 | 0.3 | 0.363 | 0.297 | 0.313 | 0.538 | 0.404 | 0.971 | 0.748 | 0.743 | 0.677 | 0.661
NCI-H727 | 0.715 | 0.637 | 0.617 | 0.645 | 0.597 |  |  |  |  | 0.475 | 0.4 | 0.498 | 0.403 | 0.665 | 0.569 | 0.472 | 0.41 | 0.364
NCI-H1650 | 0.352 | 0.39 | 0.376 | 0.417 | 0.504 | 0.317 | 0.349 | 0.33 | 0.343 |  | 0.588 | 0.554 | 0.561 |  |  |  |  | 
A-427 | 0.501 | 0.514 | 0.55 | 0.494 | 0.507 | 1.03 | 0.792 | 0.922 | 0.947 | 0.859 |  | 0.675 | 0.54 | 1.1 | 1.09 | 1.12 | 1.12 | 0.983
NCI-H650 | 0.31 | 0.342 | 0.291 | 0.35 | 0.295 | 0.943 | 0.65 | 0.781 | 0.814 | 0.869 | 0.775 | 0.47 | 0.889 | 1 | 1.15 | 1.14 | 0.97 | 0.683
NCI-H1792 | 0.659 | 0.634 | 0.612 | 0.683 | 0.695 | 0.735 | 0.648 | 0.785 | 0.6 | 0.205 | 0.314 | 0.375 | 0.411 | 0.761 | 0.745 | 0.649 | 0.602 | 0.67
NCI-H2009 | 0.252 | 0.212 | 0.254 | 0.274 | 0.181 | 0.605 | 0.547 | 0.587 | 0.517 | 0.711 | 0.618 | 0.659 | 0.637 | 1.24 | 1.14 | 1.12 | 1.05 | 0.955
Calu-6 |  |  |  |  |  |  |  |  |  | 0.735 | 0.747 | 0.702 | 0.696 | 1.18 | 0.883 | 0.91 | 0.689 | 0.597
NCI-H1975 | 0.574 | 0.53 | 0.561 | 0.432 | 0.415 | 0.217 | 0.272 | 0.271 | 0.25 |  | 0.332 | 0.411 | 0.402 | 0.658 | 0.602 | 0.537 | 0.473 | 0.495
LOU-NH91 | 0.549 | 0.458 | 0.545 | 0.559 | 0.528 |  | 0.386 | 0.394 | 0.424 |  | 0.519 | 0.55 | 0.499 | 0.695 | 0.704 | 0.741 | 0.706 | 0.674
EMC-BAC-2 | 0.516 | 0.522 | 0.536 | 0.484 | 0.489 | 0.452 | 0.419 | 0.485 | 0.527 | 0.534 | 0.531 | 0.572 | 0.454 | 0.722 | 0.725 | 0.73 | 0.737 | 0.682
LK-2 | 0.768 | 0.702 | 0.721 | 0.739 | 0.909 | 0.318 | 0.256 | 0.377 | 0.255 | 0.651 | 0.716 | 0.869 | 0.751 | 1.55 | 1.03 | 1.13 | 1.27 | 1.11
